Test results published in PubChem BioAssay AID256 (DTP/NCI, 2004).
“And” between values parts separate entries of the source, which are not always exact repeats. Identical values can stand only once. Toxic doses and inconclusive results are not listed.

Tested on: CD2F1 mice, L1210 leukemia ip, survival T/C
Assay: NCI In Vivo Anticancer Drug Screen. Data for tumor model L1210 Leukemia (intraperitoneal) in CD2F1 (CDF1) mice
Details: higher = longer survival
How it was run: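 Ratio T/C, where T is the treated-group value and C the vehicle-dosed control value, from mice implanted with a transplantable tumor.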

[1] = endpoint: mean survival time, dose: 100.0 mg/kg/injection, schedule: Q04DX003 (ip), vehicle: saline with Tween-80
[2] = endpoint: mean survival time, dose: 200.0 mg/kg/injection, schedule: Q04DX003 (ip), vehicle: saline with Tween-80
[3] = endpoint: mean survival time, dose: 100.0 mg/kg/injection, schedule: Q01DX009 (ip), vehicle: saline with Tween-80
[4] = endpoint: mean survival time, dose: 200.0 mg/kg/injection, schedule: Q01DX009 (ip), vehicle: saline with Tween-80
[5] = endpoint: mean survival time, dose: 400.0 mg/kg/injection, schedule: Q01DX009 (ip), vehicle: saline with Tween-80
[6] = endpoint: mean survival time, dose: 50.0 mg/kg/injection, schedule: Q01DX009 (ip), vehicle: saline with Tween-80
[7] = endpoint: mean survival time, dose: 50.0 mg/kg/injection, schedule: Q01DX001 (ip), vehicle: saline with Tween-80
[8] = endpoint: mean survival time, dose: 100.0 mg/kg/injection, schedule: Q01DX001 (ip), vehicle: saline with Tween-80
[9] = endpoint: mean survival time, dose: 200.0 mg/kg/injection, schedule: Q01DX001 (ip), vehicle: saline with Tween-80
[10] = endpoint: mean survival time, dose: 75.0 mg/kg/injection, schedule: Q01DX001 (ip), vehicle: other
[11] = endpoint: mean survival time, dose: 150.0 mg/kg/injection, schedule: Q01DX001 (ip), vehicle: other
[12] = endpoint: mean survival time, dose: 300.0 mg/kg/injection, schedule: Q01DX001 (ip), vehicle: other
[13] = endpoint: mean survival time, dose: 50.0 mg/kg/injection, schedule: Q01DX009 (ip), vehicle: saline
[14] = endpoint: mean survival time, dose: 100.0 mg/kg/injection, schedule: Q04DX002 (ip), vehicle: saline with Tween-80
[15] = endpoint: mean survival time, dose: 200.0 mg/kg/injection, schedule: Q04DX002 (ip), vehicle: saline with Tween-80
[16] = endpoint: mean survival time, dose: 400.0 mg/kg/injection, schedule: Q04DX002 (ip), vehicle: saline with Tween-80
[17] = endpoint: mean survival time, dose: 50.0 mg/kg/injection, schedule: Q04DX002 (ip), vehicle: saline with Tween-80

COc1cc2cc[n+](C)cc2cc1OC
T/C (endpoint: mean survival time, dose: 25.0 mg/kg/injection, schedule: Q01DX009 (ip), vehicle: water): 98 % of control
T/C (endpoint: mean survival time, dose: 50.0 mg/kg/injection, schedule: Q01DX009 (ip), vehicle: water): 103 % of control
T/C (endpoint: mean survival time, dose: 100.0 mg/kg/injection, schedule: Q01DX009 (ip), vehicle: water): 101 % of control

CC(C)(C=O)CNC(C)(C)C
T/C [1]: 105 % of control
T/C [2]: 96 % of control

Cc1ccccc1NC(=S)Nc1ccccn1
T/C [3]: 95 % of control
T/C [4]: 98 % of control
T/C [5]: 93 % of control

Clc1nc2ccccc2c2ccccc12
T/C [6]: 97 % of control
T/C [3]: 94 % of control
T/C [1]: 109 % of control
T/C [4]: 92 % of control
T/C [2]: 111 % of control

O=[P+](O)O[P+](=O)O.O=[P+](O)O[P+](=O)O.O=[P+](O)O[P+](=O)O.O=[P+](O)O[P+](=O)O.[Cl][Pt].[Cl][Pt]
T/C (endpoint: median survival time, dose: 3.12 mg/kg/injection, schedule: Q04DX003 (ip), vehicle: saline): 102 % of control
T/C (endpoint: median survival time, dose: 6.25 mg/kg/injection, schedule: Q04DX003 (ip), vehicle: saline): 96 % of control
T/C (endpoint: median survival time, dose: 12.5 mg/kg/injection, schedule: Q04DX003 (ip), vehicle: saline): 95 % of control
T/C (endpoint: median survival time, dose: 25.0 mg/kg/injection, schedule: Q04DX003 (ip), vehicle: saline): 97 % of control
T/C (endpoint: median survival time, dose: 50.0 mg/kg/injection, schedule: Q04DX003 (ip), vehicle: saline): 104 % of control

COc1ccccc1/C=N/NC(=O)c1ccccc1
T/C (endpoint: mean survival time, dose: 100.0 mg/kg/injection, schedule: Q01DX009 (ip), vehicle: Klucel (hydroxypropylcellulose) (HPC)): 102 % of control
T/C (endpoint: mean survival time, dose: 100.0 mg/kg/injection, schedule: Q04DX003 (ip), vehicle: Klucel (hydroxypropylcellulose) (HPC)): 91 % of control
T/C (endpoint: mean survival time, dose: 200.0 mg/kg/injection, schedule: Q01DX009 (ip), vehicle: Klucel (hydroxypropylcellulose) (HPC)): 96 % of control
T/C (endpoint: mean survival time, dose: 200.0 mg/kg/injection, schedule: Q04DX003 (ip), vehicle: Klucel (hydroxypropylcellulose) (HPC)): 96 % of control
T/C (endpoint: mean survival time, dose: 400.0 mg/kg/injection, schedule: Q01DX009 (ip), vehicle: Klucel (hydroxypropylcellulose) (HPC)): 108 % of control
T/C (endpoint: mean survival time, dose: 400.0 mg/kg/injection, schedule: Q04DX003 (ip), vehicle: Klucel (hydroxypropylcellulose) (HPC)): 94 % of control

CS(=O)(=O)c1cc(C(F)(F)F)cc([N+](=O)[O-])c1Cl
T/C [6]: 103 % of control
T/C [3]: 103 % of control
T/C [1]: 97 % of control
T/C [2]: 94 % of control

CC(CO)CCC(=O)C(C)C1C(=O)CC2[C@H]3CC=C4C[C@H](O)CC[C@@]4(C)C3CC[C@@]12C (stereo partly specified)
T/C [7]: 94 % of control
T/C [8]: 97 % of control
T/C [9]: 95 % of control

O=[N+]([O-])c1ccc(S(=O)(=O)Cc2ccccc2)c([N+](=O)[O-])c1
T/C [10]: 98 % of control
T/C [11]: 93 % of control
T/C [12]: 106 % of control

NCc1ccc(O)c(O)c1
T/C [13]: 115 % of control
T/C (endpoint: mean survival time, dose: 100.0 mg/kg/injection, schedule: Q01DX009 (ip), vehicle: saline): 118 % of control and 124 % of control
T/C (endpoint: mean survival time, dose: 200.0 mg/kg/injection, schedule: Q01DX009 (ip), vehicle: saline): 123 % of control and 124 % of control
T/C (endpoint: mean survival time, dose: 400.0 mg/kg/injection, schedule: Q01DX009 (ip), vehicle: saline): 114 % of control
T/C (endpoint: mean survival time, dose: 800.0 mg/kg/injection, schedule: Q01DX009 (ip), vehicle: saline): 118 % of control
T/C (endpoint: median survival time, dose: 28.13 mg/kg/injection, schedule: Q03HX024 (ip), vehicle: saline): 111 % of control
T/C (endpoint: median survival time, dose: 56.25 mg/kg/injection, schedule: Q03HX024 (ip), vehicle: saline): 110 % of control
T/C (endpoint: median survival time, dose: 300.0 mg/kg/injection, schedule: Q03HX024 (ip), vehicle: saline): 110 % of control

CC(=O)Nc1nc(Br)c2ccccc2c1-c1ccc(N(CCCl)CCCl)cc1
T/C (endpoint: mean survival time, dose: 3.13 mg/kg/injection, schedule: Q04DX003 (ip), vehicle: DMSO): 104 % of control
T/C (endpoint: mean survival time, dose: 6.25 mg/kg/injection, schedule: Q04DX003 (ip), vehicle: DMSO): 102 % of control
T/C (endpoint: mean survival time, dose: 12.5 mg/kg/injection, schedule: Q04DX003 (ip), vehicle: DMSO): 101 % of control
T/C (endpoint: mean survival time, dose: 25.0 mg/kg/injection, schedule: Q04DX003 (ip), vehicle: DMSO): 98 % of control

O=C1C=CC(=O)C=C1 (tested in a mixture with another compound)
T/C (endpoint: mean survival time, dose: 1.0 mg/kg/injection, schedule: Q01DX009 (ip), vehicle: saline sonified): 98 % of control
T/C (endpoint: mean survival time, dose: 1.0 mg/kg/injection, schedule: Q04DX003 (ip), vehicle: saline with Tween-80): 97 % of control
T/C (endpoint: mean survival time, dose: 2.0 mg/kg/injection, schedule: Q01DX009 (ip), vehicle: saline sonified): 94 % of control
T/C (endpoint: mean survival time, dose: 2.0 mg/kg/injection, schedule: Q04DX003 (ip), vehicle: saline with Tween-80): 95 % of control
T/C (endpoint: mean survival time, dose: 3.0 mg/kg/injection, schedule: Q01DX009 (ip), vehicle: saline sonified): 98 % of control
T/C (endpoint: mean survival time, dose: 3.0 mg/kg/injection, schedule: Q04DX003 (ip), vehicle: saline with Tween-80): 95 % of control
T/C (endpoint: mean survival time, dose: 6.0 mg/kg/injection, schedule: Q01DX009 (ip), vehicle: saline sonified): 90 % of control
T/C (endpoint: mean survival time, dose: 6.0 mg/kg/injection, schedule: Q04DX003 (ip), vehicle: saline with Tween-80): 97 % of control

c1ccc2[nH]c(CN3CCCCC3)cc2c1
T/C (endpoint: mean survival time, dose: 12.5 mg/kg/injection, schedule: Q01DX009 (ip), vehicle: saline with Tween-80): 106 % of control
T/C (endpoint: mean survival time, dose: 25.0 mg/kg/injection, schedule: Q01DX009 (ip), vehicle: saline with Tween-80): 100 % of control
T/C [6]: 90 % of control

COc1ccc(/C=C2\SC(=O)NC2=O)cc1
T/C [1]: 102 % of control
T/C [2]: 100 % of control

c1cc(-c2cc3ccc(C4=NCCN4)cc3[nH]2)ccc1C1=NCCN1
T/C (endpoint: mean survival time, dose: 3.12 mg/kg/injection, schedule: Q01DX009 (ip), vehicle: saline): 111 % of control
T/C (endpoint: mean survival time, dose: 3.12 mg/kg/injection, schedule: Q01DX009 (ip), vehicle: suspension in saline): 112 % of control
T/C (endpoint: mean survival time, dose: 6.25 mg/kg/injection, schedule: Q01DX009 (ip), vehicle: saline): 124 % of control
T/C (endpoint: mean survival time, dose: 6.25 mg/kg/injection, schedule: Q01DX009 (ip), vehicle: suspension in saline): 118 % of control
T/C (endpoint: mean survival time, dose: 12.5 mg/kg/injection, schedule: Q01DX009 (ip), vehicle: saline): 119 % of control
T/C (endpoint: mean survival time, dose: 12.5 mg/kg/injection, schedule: Q01DX009 (ip), vehicle: suspension in saline): 283 % of control
T/C (endpoint: mean survival time, dose: 25.0 mg/kg/injection, schedule: Q01DX009 (ip), vehicle: suspension in saline): 295 % of control and 336 % of control and 337 % of control
T/C [13]: 88 % of control

CCOC(=O)NC(C#N)=C(Cl)Cl
T/C [14]: 114 % of control
T/C [15]: 88 % of control
T/C [16]: 100 % of control

O=C(OC1CCC(c2ccccc2)C1)c1cc([N+](=O)[O-])cc([N+](=O)[O-])c1 (stereo unspecified)
T/C [10]: 92 % of control
T/C [11]: 92 % of control
T/C [12]: 92 % of control

CC(=NCC(C)N=C(C)c1ccccc1O)c1ccccc1O.[Ni] (stereo unspecified)
T/C [17]: 109 % of control
T/C [14]: 97 % of control
T/C [15]: 97 % of control
T/C [16]: 97 % of control

CCC/C=C(\C#N)C(=O)OC
T/C (endpoint: mean survival time, dose: 75.0 mg/kg/injection, schedule: Q01DX001 (ip), vehicle: saline): 97 % of control

IC1CCC[N-]C1.IC1CCC[N-]C1.[Cl][Pt+2][Cl] (stereo unspecified)
T/C [7]: 95 % of control
T/C [8]: 93 % of control
T/C [9]: 95 % of control

N#CS.N=C=S.N=C=S.[Co+3].[NH-]CC[NH-].[NH-]CC[NH-]
T/C (endpoint: mean survival time, dose: 100.0 mg/kg/injection, schedule: Q04DX002 (ip), vehicle: saline): 111 % of control
T/C (endpoint: mean survival time, dose: 200.0 mg/kg/injection, schedule: Q04DX002 (ip), vehicle: saline): 104 % of control

O=C(Nc1ccc(Cl)cc1)Nc1ccccc1F
T/C [3]: 97 % of control
T/C [4]: 103 % of control
T/C [5]: 105 % of control

O=c1ccc2ccc(O)cc2o1
T/C [6]: 101 % of control
T/C (endpoint: mean survival time, dose: 100.0 mg/kg/injection, schedule: Q01DX001 (ip), vehicle: saline): 103 % of control
T/C [3]: 93 % of control
T/C (endpoint: mean survival time, dose: 200.0 mg/kg/injection, schedule: Q01DX001 (ip), vehicle: saline): 108 % of control
T/C [4]: 97 % of control
T/C (endpoint: mean survival time, dose: 400.0 mg/kg/injection, schedule: Q01DX001 (ip), vehicle: saline): 103 % of control

COc1cccc2c1CCN1C3=C(CC(OC)CC3)C(=O)CC21 (stereo unspecified)
T/C (endpoint: mean survival time, dose: 25.0 mg/kg/injection, schedule: Q04DX002 (ip), vehicle: saline with Tween-80): 93 % of control
T/C [17]: 104 % of control
T/C [14]: 96 % of control
T/C [1]: 101 % of control
